Test results reported in patent US10105357B2, “Indication of antibiotic drugs for preparation of cancer inhibition pharmaceutical composition” (LAUNX BIOMEDICAL CO., LTD., priority 2014, dated 2018).
Read-outs that look alike come from different tables or passages of the source.

How the values were obtained:
[1] = system: HI650 (Lung Adenocarcinoma); experiment: Cell viability analysis, lung cancer HI650; format: cell-based, human; conditions: for viability at 10 µM: Homo sapiens, NCI-H1650, 72 h
[2] = system: U-2OS; experiment: Cell viability analysis, osteosarcoma U-2OS; format: cell-based, human
[3] = system: HepG2 (Hepatocellular Carcinoma); experiment: Cell viability analysis, hepatic cancer HepG2; format: cell-based, human; conditions: for viability at 10 µM: Homo sapiens, HepG2, 72 h
[4] = system: HeLa (Cervix Adenocarcinoma); experiment: Cell viability analysis, cervical cancer HeLa; format: cell-based, human; conditions: for viability at 10 µM: Homo sapiens, HeLa, 72 h
[5] = system: BCC (basal cell carcinoma); experiment: Cell viability analysis, skin cancer BCC; format: cell-based, human; conditions: Homo sapiens, 72 h, read-out: The results of antibiotic drug inhibiting cancer cell lines (cell viability analysis), BCC
[6] = system: NIH: OVCAR-3; experiment: Cell viability analysis, ovarian cancer NIH: OVCAR-3; format: cell-based, human
[7] = system: AsPC-1; experiment: Cell viability analysis, pancreatic cancer AsPC-1; format: cell-based, human
[8] = system: A549 (Lung Adenocarcinoma); experiment: Cell viability analysis, lung cancer A549; format: cell-based, human; conditions: for viability at 10 µM: Homo sapiens, A549, 72 h
[9] = system: HCT116 (p53+) (Colorectal Carcinoma)
[10] = system: BxPC-3; experiment: Cell viability analysis, pancreatic cancer BxPC-3; format: cell-based, human; conditions: Homo sapiens, BXPC-3, 72 h, read-out: The results of antibiotic drug inhibiting cancer cell lines (cell viability analysis), BxPC-3
[11] = system: C-33A (Cervical carcinoma); experiment: Cell viability analysis, cervical cancer C-33A; format: cell-based, human
[12] = system: A375 (Amelanotic Melanoma); experiment: Cell viability analysis, skin cancer A375; format: cell-based, human; conditions: for viability at 10 µM: Homo sapiens, A-375, 72 h
[13] = system: PC3 (p53−) (Prostate Adenocarcinoma); experiment: Cell viability analysis, prostate cancer PC3; format: cell-based, human; conditions: for viability at 10 µM: Homo sapiens, 72 h
[14] = system: MDA-MB-231 (Mammary Gland, Adenocarcinoma); experiment: Cell viability analysis, breast cancer MDA-MB-231; format: cell-based, human
[15] = system: HL-60 (Acute Promyelocytic Leukemia); experiment: Cell viability analysis, leukemia HL-60; format: cell-based, human; conditions: Homo sapiens, HL-60, 72 h, read-out: cell viability (survival rate), HL-60, drug 10 μM, 72 hours, WST-1, OD450 nm
[16] = system: TOV-21G; experiment: Cell viability analysis, ovarian cancer TOV-21G; format: cell-based, human; conditions: Homo sapiens, TOV21G, 72 h, read-out: The results of antibiotic drug inhibiting cancer cell lines (cell viability analysis), TOV-21G
[17] = system: TSGH-8301 (Urinary Bladder Carcinoma); experiment: Cell viability analysis, bladder cancer TSGH-8301; format: cell-based, human; conditions: for viability at 10 µM: Homo sapiens, 72 h
[18] = system: cancer cell lines; experiment: Cell viability analysis (WST-1) on cancer cell lines; format: cell-based, human; conditions: drug 10 μM, 72 hours, WST-1; Table 3
[19] = system: MCF7 (Mammary Gland, Adenocarcinoma); experiment: Cell viability analysis, breast cancer MCF7; format: cell-based, human; conditions: Homo sapiens, MCF7, 72 h
[20] = system: Hep3B (hepatocellular carcinoma); experiment: Cell viability analysis, hepatic cancer Hep3B; format: cell-based, human
[21] = system: MKN-45 (Gastric Adenocarcinoma); experiment: Cell viability analysis, gastric cancer MKN-45; format: cell-based, human; conditions: for viability at 10 µM: Homo sapiens, MKN-45, 72 h
[22] = system: 786-O (Renal adenocarcinoma); experiment: Cell viability analysis, renal cancer 786-O; format: cell-based, human
[23] = system: LoVo (Colorectal Adenocarcinoma); experiment: Cell viability analysis, colon cancer LoVo; format: cell-based, human; conditions: for viability at 10 µM: Homo sapiens, LoVo, 72 h
[24] = system: SAS (Tongue squamous cell carcinoma); experiment: Cell viability analysis, tongue cancer SAS; format: cell-based, human
[25] = system: AGS (Gastric Adenocarcinoma); experiment: Cell viability analysis, gastric cancer AGS; format: cell-based, human; conditions: for viability at 10 µM: Homo sapiens, 72 h

CCOc1ccc(NC(C)=O)cc1 [Phenacetin] was tested, and the viability at 10 µM ([1]; read-out: The results of antibiotic drug inhibiting cancer cell lines (cell viability analysis), H1650, H1650, repeated experiment) was 90.1%, the viability at 10 µM ([1]; read-out: cell viability (survival rate), H1650, drug 10 μM, 72 hours, WST-1, OD450 nm) was 39.1% and the viability at 10 µM ([2]; Homo sapiens, U2OS, 72 h, read-out: The results of antibiotic drug inhibiting cancer cell lines (cell viability analysis), U2OS) was 63.9%. The viability at 10 µM ([3]; read-out: The results of antibiotic drug inhibiting cancer cell lines (cell viability analysis), HepG2, HepG2, repeated experiment) was 121%, the viability at 10 µM ([3]; read-out: cell viability (survival rate), HepG2, drug 10 μM, 72 hours, WST-1, OD450 nm) was 72.5% and the viability at 10 µM ([4]; read-out: The results of antibiotic drug inhibiting cancer cell lines (cell viability analysis), HeLa, repeated experiment) was 110%. It also gave a viability at 10 µM ([4]; read-out: cell viability (survival rate), HeLa, drug 10 μM, 72 hours, WST-1, OD450 nm) of 57.2%, a viability at 10 µM [5] of 119% and a viability at 10 µM ([6]; Homo sapiens, OVCAR-3, 72 h, read-out: The results of antibiotic drug inhibiting cancer cell lines (cell viability analysis), NIH-OVCAR-3) of 105%. The viability at 10 µM ([7]; Homo sapiens, ASPC1, 72 h, read-out: The results of antibiotic drug inhibiting cancer cell lines (cell viability analysis), AsPC-1) was 90.5%, the viability at 10 µM ([8]; read-out: The results of antibiotic drug inhibiting cancer cell lines (cell viability analysis), A549, A549, repeated experiment) was 87.6% and the viability at 10 µM ([8]; read-out: cell viability (survival rate), A549, drug 10 μM, 72 hours, WST-1, OD450 nm) was 34.4%. For the same molecule, the viability [9] was 102%, the viability at 10 µM [10] was 73.2% and the viability at 10 µM ([11]; Homo sapiens, C-33-A, 72 h, read-out: The results of antibiotic drug inhibiting cancer cell lines (cell viability analysis), C-33A) was 114%. The viability at 10 µM ([12]; read-out: The results of antibiotic drug inhibiting cancer cell lines (cell viability analysis), A375, A375, repeated experiment) was 106%, the viability at 10 µM ([12]; read-out: cell viability (survival rate), A375, drug 10 μM, 72 hours, WST-1, OD450 nm) was 54.1% and the viability at 10 µM ([13]; read-out: The results of antibiotic drug inhibiting cancer cell lines (cell viability analysis), PC-3, PC-3, repeated experiment) was 133%. It also gave a viability at 10 µM ([13]; read-out: cell viability (survival rate), PC3, drug 10 μM, 72 hours, WST-1, OD450 nm) of 40.4%, a viability at 10 µM ([14]; Homo sapiens, MDA-MB-231, 72 h, read-out: The results of antibiotic drug inhibiting cancer cell lines (cell viability analysis), MDA-MB231) of 91.7% and a viability at 10 µM [15] of 95.3%. For the same molecule, the viability at 10 µM [16] was 95.8%, the viability at 10 µM ([17]; read-out: The results of antibiotic drug inhibiting cancer cell lines (cell viability analysis), TSGH-8301, TSGH-8301, repeated experiment) was 128% and the viability at 10 µM ([17]; read-out: cell viability (survival rate), TSGH, drug 10 μM, 72 hours, WST-1, OD450 nm) was 23.3%. The “inhibition effect on different cancer cell lines” value [18] was “significant inhibition effect”, the viability at 10 µM ([19]; read-out: The results of antibiotic drug inhibiting cancer cell lines (cell viability analysis), MCF-7, MCF-7, repeated experiment) was 92.9% and the viability at 10 µM ([19]; read-out: cell viability (survival rate), MCF7, drug 10 μM, 72 hours, WST-1, OD450 nm) was 62.7%. The viability at 10 µM ([20]; Homo sapiens, Hep3B, 72 h, read-out: The results of antibiotic drug inhibiting cancer cell lines (cell viability analysis), Hep3B) was 106%, the viability at 10 µM ([21]; read-out: The results of antibiotic drug inhibiting cancer cell lines (cell viability analysis), MKN-45, MKN-45, repeated experiment) was 123% and the viability at 10 µM ([21]; read-out: cell viability (survival rate), MKN-45, drug 10 μM, 72 hours, WST-1, OD450 nm) was 75.1%. It also gave a viability at 10 µM ([22]; Homo sapiens, 786-0, 72 h, read-out: The results of antibiotic drug inhibiting cancer cell lines (cell viability analysis), 786-O) of 92%, a viability at 10 µM ([23]; read-out: The results of antibiotic drug inhibiting cancer cell lines (cell viability analysis), LoVo, repeated experiment) of 87.7% and a viability at 10 µM ([23]; read-out: cell viability (survival rate), LoVo, drug 10 μM, 72 hours, WST-1, OD450 nm) of 48.5%. It also gave a viability at 10 µM ([24]; Homo sapiens, 72 h, read-out: The results of antibiotic drug inhibiting cancer cell lines (cell viability analysis), SAS) of 81.9%, a viability at 10 µM ([25]; read-out: The results of antibiotic drug inhibiting cancer cell lines (cell viability analysis), AGS, repeated experiment) of 122% and a viability at 10 µM ([25]; read-out: cell viability (survival rate), AGS, drug 10 μM, 72 hours, WST-1, OD450 nm) of 40.4%.
With N#C[C@@H]1C[C@@H]2C[C@H]2N1C(=O)[C@@H](N)C12CC3CC(CC(O)(C3)C1)C2 [Saxagliptin (BMS-477118, Onglyza)] the “The results of antibiotic drug inhibiting cancer cell lines (cell viability analysis), H1650” value [1] was 101.5, the “The results of antibiotic drug inhibiting cancer cell lines (cell viability analysis), U2OS” value [2] was 62.9 and the “The results of antibiotic drug inhibiting cancer cell lines (cell viability analysis), HepG2” value [3] was 118. For the same molecule, the “The results of antibiotic drug inhibiting cancer cell lines (cell viability analysis), HeLa” value [4] was 114.7, the “The results of antibiotic drug inhibiting cancer cell lines (cell viability analysis), NIH-OVCAR-3” value [6] was 114.2 and the “The results of antibiotic drug inhibiting cancer cell lines (cell viability analysis), AsPC-1” value [7] was 75.97. The “The results of antibiotic drug inhibiting cancer cell lines (cell viability analysis), A549” value [8] was 98.68, the viability [9] was 107% and the “The results of antibiotic drug inhibiting cancer cell lines (cell viability analysis), C-33A” value [11] was 104.4. For the same molecule, the “The results of antibiotic drug inhibiting cancer cell lines (cell viability analysis), A375” value [12] was 111.4, the “The results of antibiotic drug inhibiting cancer cell lines (cell viability analysis), PC-3” value [13] was 112 and the “The results of antibiotic drug inhibiting cancer cell lines (cell viability analysis), MDA-MB231” value [14] was 102. The “The results of antibiotic drug inhibiting cancer cell lines (cell viability analysis), TSGH-8301” value [17] was 119.6, the “The results of antibiotic drug inhibiting cancer cell lines (cell viability analysis), Hep3B” value [20] was 122.9 and the “The results of antibiotic drug inhibiting cancer cell lines (cell viability analysis), MKN-45” value [21] was 117.7. The “The results of antibiotic drug inhibiting cancer cell lines (cell viability analysis), 786-O” value [22] was 98.33, the “The results of antibiotic drug inhibiting cancer cell lines (cell viability analysis), LoVo” value [23] was 82.99 and the “The results of antibiotic drug inhibiting cancer cell lines (cell viability analysis), SAS” value [24] was 62.71. For the same molecule, the “The results of antibiotic drug inhibiting cancer cell lines (cell viability analysis), AGS” value [25] was 121.3.
